Data on one molecule can be found in ChEMBL document CHEMBL1141040, “Isolation, structure elucidation, preparation, and biological properties of neolambertellin” (Bioorg Med Chem Lett, 2005).

The test system of the experiment is Bipolaris oryzae. Nature of the experiment: Inhibitory concentration against hyphal germination of Cochlibolus miyabeanus. In kind it is functional, organism-based.

Values after ≈ are worked out from the molar mass of the structure shown.

Turning to `Cc1cc2cc(O)c3c(O)cccc3c2oc1=O`, it took 100 µg/mL (≈ 413 µM) to reach half-maximal inhibition (IC50).

The term IC50 denotes the concentration that inhibits the measured activity by half. The low end stands for inhibition by little substance, the high end for a need for much substance.
